Laboratory results as given in patent US20250091989A1, “SMALL MOLECULE PROTEIN SYNTHESIS MODULATORS” (Interdict Bio, Inc., priority 2023, published 2025).

Key:
[1] = test system: MYC; assay: In vitro transcription-translation (IVTT) reporter assay, MYC test sequence; assay type: biochemical; settings: HeLa S3 lysate, sfGFP/mCherry ratio, 2 hrs at 30° C.
Excerpt: (§1) All reporter constructs have been cloned into the pT7CFE1-CHis plasmid (ThermoFisher #88860) using Gibson assembly procedures (NEB #E2611L). The parental pT7CFE1-CHis plasmid contains an EMCV IRES at the 5′UTR for translation initiation, a multiple-cloning site (MCS) for gene insertion, an optional C-terminal His-epitope tag, and polyA sequence in the 3′UTR to regulate mRNA stability. All reporters are designed to be inserted at the MCS to include a red fluorescent protein (mCherry), P2A self-cleaving peptide which releases the preceding mCherry protein product, and a fusion open reading frame containing a 3×FLAG epitope, a peptide sequence of interest (TEST), and green fluorescent protein (sfGFP).
(§2) Construct Plasmid Preparation: All plasmids are isolated from MACH1 cells (ThermoFisher) grown overnight in ampicillin-containing luria broth, and purified using ZymoPure Express Plasmid Midiprep Kit (Zymo Research). Constructs are sequenced verified and diluted to a working concentration of 110 ng/μL.
(§3) HeLa S3 Lysate Preparation: HeLa S3 cell pellets are acquired from Ipracell/Ipratech (Belgium) and shipped as 4 mL frozen cell pellets on dry ice for storage at −80° C. until use. The procedure for lysate preparation is as follows. Prepare 1× Lysis Buffer, cold and stored on ice:
(§4) Each preparation takes 8 cell pellets (4 ml packed volume each, approximately 1.0×10^9 cells per pellet). Thaw cell pellets from −80° C. on ice for 90 mins. Lay pellets horizontally on top of the ice and rotate every 30 mins to ensure even thawing. Once thawed, add 4 mL of cold lysis buffer to each pellet, and using a serological pipet, gently pipet up and down to break up clumps. Incubate resuspended cells in ice for an additional 30 mins (plunged into ice). During 30 min incubation, rinse and RNase-zap (Ambion) glass dounces (use loose pestle “A”), gently dry and place on ice until needed. Prepare RNase-free Eppendorf tubes for spinning and for batch storage. Add batch labels to 1.5-1.7 mL RNase-free microcentrifuge tubes (labeling scheme below). Each batch will have an extra 1.5-1.7 mL RNase-free microcentrifuge tube for 40 μL of lysate, label the top of this tube (labeling scheme below). After 30 min incubation, transfer all 8 mL of cell pellet to dounce. Cell lysis is complete after douncing 100 times. Aliquot cell lysis into 1.5-1.7 mL temporary-microcentrifuge tubes. Place tubes in centrifuge with “fins” out, and spin at 1,200 xg for 5 mins. After the first spin use a 1 mL pipet to resuspend each tube and repeat spin. This acts as an additional lysis step, is more vigorous and increases lysate yield. During second spin get liquid N2 and a fresh conical tube on ice.
(§5) After spin is complete, transfer supernatant (lysate) from microcentrifuge tubes into the 50 mL conical tube and keep on ice. Repeat steps 10-14 for all other cell pellets until completed. Once all cell lysate has been transferred to the 50 mL conical tube pipet to mix so the solution is homogenous. Transfer 1 mL of lysate into batch-labeled microcentrifuge tubes and flash freeze in liquid nitrogen. Be sure to pipet up and down to mix throughout transfer step. Place all tubes in the […] for long-term storage.
(§6) In vitro transcription-translation assay setup: Each assay includes a master mix containing lysate and shared components, a 96-well plate containing compound titrations for testing, a 96-well DNA plate with reporter constructs to be tested, 96-well skirted PCR plates, and 96-well flat-bottom, black, fluorescent assay plates. […]

[2] = test system: ALK; assay: In vitro transcription-translation (IVTT) reporter assay, ALK test sequence; assay type: biochemical; settings: HeLa S3 lysate, sfGFP/mCherry ratio, 2 hrs at 30° C.
Excerpt: as §1, §2, §3, §4, §5, §6

Compound | IC50 [1] [µM] | IC50 [2] [µM]
COc1ccc(C[C@H]2NC[C@H](O)[C@H]2OC(=O)C2(N)CCCC2)cc1 [V186782, (2R,3S,4S)-4-hydroxy-2-[(4-methoxyphenyl)methyl]pyrrolidin-3-yl 1-aminocyclopentane-1-carboxylate] | > 30 | > 30
COc1ccc(C[C@H]2NC[C@H](O)[C@H]2OC(=O)CC[C@@H]2CCCN2)cc1 [V192931, (2R,3S,4S)-4-hydroxy-2-[(4-methoxyphenyl)methyl]pyrrolidin-3-yl 3-[(2S)-pyrrolidin-2-yl]propanoate] | < 10 | –
COc1ccc(C[C@H]2NC[C@H](O)[C@H]2OC(=O)[C@H]2CC[C@@H](O)CC2)cc1 [V186823, (2R,3S,4S)-4-hydroxy-2-[(4-methoxyphenyl)methyl]pyrrolidin-3-yl (1 s,4 s)-4-hydroxy cyclohexane-1-carboxylate] | > 30 | 20 to 30
COc1ccc(C[C@H]2NC[C@H](O)[C@H]2OC(=O)CC[C@H]2CNCCN2)cc1 [V041828, (2R,3S,4S)-4-hydroxy-2-[(4-methoxyphenyl)methyl]pyrrolidin-3-yl 3-[(2S)-piperazin-2-yl]propanoate] | > 30 | > 30
CC(=O)O[C@@H]1[C@@H](O)CN[C@@H]1Cc1ccc(-c2cnco2)cc1 [V192987, (2R,3S,4S)-4-hydroxy-2-{[4-(1,3-oxazol-5-yl)phenyl]methyl}pyrrolidin-3-yl acetate] | < 10 | –
COc1ccc(C[C@H]2NC[C@H](O)[C@H]2OC(=O)CC[C@H]2CN(C)CCN2C)cc1 [V186854, (2R,3S,4S)-4-hydroxy-2-[(4-methoxyphenyl)methyl]pyrrolidin-3-yl 3-[(2S)-1,4-dimethylpiperazin-2-yl]propanoate; trifluoroacetic acid] | > 30 | > 30
O=C(Cc1cccc(F)c1)O[C@@H]1[C@@H](O)CN[C@@H]1Cc1ccc(-c2cncs2)cc1 [V192844, (2R,3S,4S)-4-hydroxy-2-{[4-(1,3-thiazol-5-yl)phenyl]methyl}pyrrolidin-3-yl 2-(3-fluorophenyl)acetate] | < 10 | –
O=C(CC1CC(F)(F)C1)O[C@@H]1[C@@H](O)CN[C@@H]1Cc1ccc(-c2cnco2)cc1 [V192387, (2R,3S,4S)-4-hydroxy-2-{[4-(1,3-oxazol-5-yl)phenyl]methyl}pyrrolidin-3-yl 2-(3,3-difluorocyclobutyl)acetate] | < 10 | –
O=C(C[C@@H]1CCNC1)O[C@@H]1[C@@H](O)CN[C@@H]1Cc1ccc(-c2cnco2)cc1 [V193047, (2R,3S,4S)-4-hydroxy-2-{[4-(1,3-oxazol-5-yl)phenyl]methyl}pyrrolidin-3-yl 2-[(3S)-pyrrolidin-3-yl]acetate] | < 10 | –
COc1ccc(C[C@H]2NC[C@H](O)[C@H]2OC(=O)Cc2nccs2)cc1 [V187052, (2R,3S,4S)-4-hydroxy-2-[(4-methoxyphenyl)methyl]pyrrolidin-3-yl 2-(1,3-thiazol-2-yl)acetate; trifluoroacetic acid] | < 10 | < 10
CC(=O)O[C@@H]1[C@@H](O)CN[C@@H]1Cc1ccc(-c2nn[nH]n2)cc1 [V187008, (2R,3S,4S)-4-hydroxy-2-{[4-(2H−1,2,3,4-tetrazol-5-yl)phenyl]methyl}pyrrolidin-3-yl acetate; trifluoroacetic acid] | < 10 | < 10
COc1ccc(C[C@H]2NC[C@H](O)[C@H]2OC(=O)CCc2ccccc2)cc1 [V187069, (2R,3S,4S)-4-hydroxy-2-[(4-methoxyphenyl)methyl]pyrrolidin-3-yl 3-phenylpropanoate] | < 10 | < 10
O=C(CC1CC(F)(F)C1)O[C@@H]1[C@@H](O)CN[C@@H]1Cc1ccc(-c2cncs2)cc1 [V192840, (2R,3S,4S)-4-hydroxy-2-{[4-(1,3-thiazol-5-yl)phenyl]methyl}pyrrolidin-3-yl 2-(3,3-difluorocyclobutyl)acetate] | < 10 | –
COc1ccc(C[C@H]2NC[C@H](O)[C@H]2OC(=O)CCn2ccc(=O)[nH]c2=O)cc1 [V186992, (2R,3S,4S)-4-hydroxy-2-[(4-methoxyphenyl)methyl]pyrrolidin-3-yl 3-(2,4-dioxo-3H-pyrimidin-1-yl)propanoate] | < 10 | < 10
COc1ccc(C[C@H]2NC[C@H](O)[C@H]2OC(=O)CCc2cn(C)cn2)cc1 [V187096, (2R,3S,4S)-4-hydroxy-2-[(4-methoxyphenyl)methyl]pyrrolidin-3-yl 3-(1-methylimidazol-4-yl)propanoate; trifluoroacetic acid] | < 10 | < 10
O=C(C[C@@H]1CCNC1)O[C@@H]1[C@@H](O)CN[C@@H]1Cc1ccc(C(F)F)cc1 [V193046, (2R,3S,4S)-2-{[4-(difluoromethyl)phenyl]methyl}-4-hydroxypyrrolidin-3-yl 2-[(3S)-pyrrolidin-3-yl]acetate] | < 10 | –
O=C(CC[C@@H]1CCCN1)O[C@@H]1[C@@H](O)CN[C@@H]1Cc1ccc(-c2cnco2)cc1 [V192841] | < 10 | –
O=C(CC[C@@H]1CCCN1)O[C@@H]1[C@@H](O)CN[C@@H]1Cc1ccc(-c2cncs2)cc1 [V192842, (2R,3S,4S)-4-hydroxy-2-{[4-(1,3-thiazol-5-yl)phenyl]methyl}pyrrolidin-3-yl 3-[(2S)-pyrrolidin-2-yl]propanoate] | < 10 | –
COc1ccc(C[C@H]2NC[C@H](O)[C@H]2OC(=O)Cc2ccc(CC(C)C)cc2)cc1 [V187182, (2R,3S,4S)-4-hydroxy-2-[(4-methoxyphenyl)methyl]pyrrolidin-3-yl 2-[4-(2-methylpropyl)phenyl]acetate; trifluoroacetic acid] | > 30 | 10 to 20
CC(=O)O[C@@H]1[C@@H](O)CN[C@@H]1Cc1ccc(OC(F)(F)F)cc1 [V187185, (2R,3S,4S)-4-hydroxy-2-{[4-(trifluoromethoxy)phenyl]methyl}pyrrolidin-3-yl acetate] | < 10 | –
COc1ccc(C[C@H]2NC[C@H](O)[C@H]2OC(=O)Cn2cnnc2)cc1 [V187181, (2R,3S,4S)-4-hydroxy-2-[(4-methoxyphenyl)methyl]pyrrolidin-3-yl 2-(1,2,4-triazol-4-yl)acetate] | 20 to 30 | < 10
COc1ccc(C[C@H]2NC[C@H](O)[C@H]2OC(=O)c2ccc(F)c(S(=O)(=O)N(C)C)c2)cc1 [V000196, (2R,3S,4S)-4-hydroxy-2-[(4-methoxyphenyl)methyl]pyrrolidin-3-yl 3-(dimethylsulfamoyl)-4-fluorobenzoate] | > 30 | > 30
O=C(Cc1cccc(F)c1)O[C@@H]1[C@@H](O)CN[C@@H]1Cc1ccc(-c2cnco2)cc1 [V192843, (2R,3S,4S)-4-hydroxy-2-{[4-(1,3-oxazol-5-yl)phenyl]methyl}pyrrolidin-3-yl 2-(3-fluorophenyl)acetate] | < 10 | –
COc1ccc(C[C@H]2NC[C@H](O)[C@H]2OC(=O)Cc2cccs2)cc1 [V187050, (2R,3S,4S)-4-hydroxy-2-[(4-methoxyphenyl)methyl]pyrrolidin-3-yl 2-(thiophen-2-yl)acetate] | < 10 | < 10
COc1ccc(C[C@H]2NC[C@H](O)[C@H]2OC(=O)[C@@H]2CN(Cc3ccccc3)CC23CNC3)cc1 [V186717, (2R,3S,4S)-4-hydroxy-2-[(4-methoxyphenyl)methyl]pyrrolidin-3-yl (8S)-6-benzyl-2,6-diazaspiro[3.4]octane-8-carboxylate] | > 30 | > 30
